Source: patent publication US20040255344A1, “Rodent with urinary disturbance and method of constructing the same, and method of screening remedy for urinary disturbance using the rodent” (priority 2001, published 2004)
Counter-ions that a name gives are not always drawn.

Test system: urinary dysfunction model rat
Experiment: screening test in urinary dysfunction model rat (superior colliculus lesion), cystometrography
Format: in vivo
Details: 0.3 mg/kg iv, 5 minutes after intravenous administration, FIG. 9
Excerpt: FIG. 3 indicates a schematic diagram of a system to measure the status of accelerated urinary reflex used in the present invention.
Here, a cystometrogram is made when detecting the urinary reflex by putting a catheter (not indicated in the diagram) in the bladder, and continuously measuring the changes of internal bladder pressure through the said catheter.
Further, the volume of the bladder can be calculated from the results of this cystometrogram as follows. Specifically, when infusing physiological saline into the bladder at a constant rate, the volume of the bladder can be calculated by multiplying the time required to reach the threshold where the urinary reflex starts by the fixed rate.
An urinary dysfunction model rat was produced by the following method. […]
After the operation was complete and the animals had awakened from the anesthesia, the post-operative rat was measured using cystometrography based on the system indicated in FIG. 3, and the status of accelerated urinary reflex was confirmed.
Using a control rat and the rat produced under adequate conditions based on the present invention, the presence of a therapeutic effect was assessed after intravenously administering oxybutynin hydrochloride (0.3 mg/kg iv:iv means intravenous injection, and iv means the same in FIG. 9.), which is a candidate compound as a therapeutic agent for urinary dysfunction. […]

CCN(CC)CC#CCOC(=O)C(O)(c1ccccc1)C1CCCCC1 (centres unmarked) [oxybutynin hydrochloride]
bladder volume: increased | level of the urinary dysfunction: improved
